Measured values published in patent publication US20150139959A1 (priority 2009, published 2015).

How the values were obtained:
3T3 mouse fibroblasts = assay type: cell-based
[1] = 14-day daily gavage toxicity study, body and organ weights; conditions: for Feed efficacy (Body weight gain/Food Consumption) / Final body weight: 14 days
Caco-2 cells = assay type: cell-based, Human

Row | Structure (SMILES) | BrdU bioassay IC50 (95% Confidence Interval) (3T3 mouse fibroblasts) | Food Consumption during the 14 days ([1]; 25 mg/kg bw) | Feed efficacy (Body weight gain/Food Consumption) ([1]; 25 mg/kg bw) | Final body weight ([1]; 25 mg/kg bw) | Food Consumption during the 14 days ([1]; 100 mg/kg bw) | Feed efficacy (Body weight gain/Food Consumption) ([1]; 100 mg/kg bw) | Final body weight ([1]; 100 mg/kg bw) | MTT bioassay IC50 (95% Confidence Interval) (Caco-2 cells) | Food Consumption during the 14 days ([1]; 2 mg/kg bw) | Feed efficacy (Body weight gain/Food Consumption) ([1]; 2 mg/kg bw)
1 | CC1=C[C@H]2O[C@@H]3[C@H](O)C[C@](C)([C@@]2(CO)[C@H](O)C1=O)[C@]31CO1 [3-epi-DON] | 281 (156, 505) μg/mL | 85.860 g | 0.0475 | 21.390 g | 85.760 g | 0.0413 | 21.680 g | 146 (100, 212) μg/mL | – | –
2 | CC1=C[C@H]2O[C@@H]3[C@H](O)C[C@](C)([C@@]2(CO)[C@H](O)C1=O)[C@]31CO1 [DON, Deoxynivalenol, reference compound] | 0.238 (0.162, 0.349) μg/mL | – | – | – | – | – | – | 0.409 (0.324, 0.518) μg/mL | 81.090 g | 0.0252
